Among the data in patent publication US10111967B2, “Complexes of RNA and cationic peptides for transfection and for immunostimulation” (CureVac AG, priority 2007, dated 2018) are TNFalpha production values, retold here.

The subject of the test is hPBMC cells. In words: Immunostimulation of hPBMC cells by RNA/peptide complexes, cytokine production (IL-6, TNF-alpha) by ELISA. It is filed as cell-based, human. The note with it: hPBMCs, 24 h; nona-arginine or mRNA alone (not complexed). The protocol: 15 μg RNA stabilized luciferase mRNA according to SEQ ID NO: 36 (Luc-RNActive) were mixed in different mass ratios with nona-arginine (Arg9) or poly-L-arginine (Sigma-Aldrich; P4663; 5000-15000 g/mol), thereby forming a complex. Following mass ratios were used as shown exemplarily for ((Arg)9). Poly-L-arginine was used for comparative examples following the same instructions.
HPBMC cells from peripheral blood of healthy donors were isolated using a Ficoll gradient and washed subsequently with 1×PBS (phosphate-buffered saline). The cells were then seeded on 96-well microtiter plates (200×1 03/well). […] The immunostimulatory effect upon the hPBMC cells was measured by detecting the cytokine production (Interleukin-6 and Tumor necrose factor alpha). […] Then, the plate was again washed with 1×PBS, containing 0.05% TWEEN®-20 surfactant, and ABTS (2,2′-azino-bis(3-ethylbenzthiazoline-6-sulfonic acid) was added as a substrate. The amount of cytokine was determined by measuring the absorption at 405 nm (OD405) using a standard curve with recombinant Cytokines (BD Pharmingen, Heidelberg, Germany) with the Sunrise ELISA-Reader from Tecan (Crailsheim, Germany). […]
The effect of R9H3 on immunostimulation was tested in hPBMCs. […] The immunostimulatory effect upon the hPBMC cells was measured by detecting the cytokine production (Interleukin-6 and Tumor necrose factor alpha). […]
Background: An ELISA detects its analyte on a solid surface through an enzyme-linked reagent.

For the substance “Arg-Arg-Arg-Arg-Arg-Arg-Arg-Arg-Arg (RRRRRRRRR; Synthetic peptide - Exemplary oligopeptide according to formula I) [nona-arginine ((Arg)9) alone]”, the TNFalpha production entry is reported as “no significant TNFalpha production”.
